From patent US11840495B2, “Compositions and methods related to di-substituted bicyclo[2.2.1] heptanamine-containing compounds” (The Broad Institute, Inc., priority 2020, dated 2023)
Where a name gives a salt, the structure may show the parent alone. Read-outs that look alike come from different tables or passages of the source.

Experiments:
MUC1-wt = assay: Immunofluorescence imaging of MUC1-wt in P cells (Example 2); format: cell-based; conditions: for EC50: 48 hr incubation, MUC1-wt; for WT EMax / WT ECMax (%): 48 hr; for WT EMax: DMSO = 0, JQ1 = −100% activity, in %; for WT ECMax (%): DMSO = 0, JQ1 (250 nM) = −100% activity
Method: (§1) P cells were seeded 24 hr prior to compound treatment at a density of 12,000 cells/well in 384 well Cell Carrier Ultra plates (6057308, Perkin Elmer), pre-coated with 0.25 mg/mL Synthemax II SC Substrate (3535, Corning). Compounds were used at 5 doses (35, 3.5, 0.35, 0.035 and 0.0035 μM) for the primary screen and 10 doses (16, 5.6, 1.8, 0.6, 0.21, 0.07, 0.02, 0.008, 0.002 and 0.0008 μM) for the following screens. The compounds, in two replicates, were transferred from compound source plates to the cell plates using the HighRes Pin Tool. DMSO was used as a negative control and JQ1 (250 nM) (a bromodomain inhibitor) was chosen as a positive control, based on earlier studies showing its potent effect on reducing total MUC1 mRNA levels (data not shown). After 48 hr incubation, cells were fixed for 20 min in 4% PFA (Electron Microscopy Sciences) in PBS, washed twice, then permeabilized (10 min) with 0.5% Triton-X100 (X100-100ML, Sigma-Aldrich) in PBS and washed once more. Cells were blocked for 10 min at RT with Blocking solution (100 mM Tris HCL pH8; 150 mM NaCL; 5 g/L Blocking Reagent [11096176001, Roche]), then incubated 90 min at RT with one of the following primary antibodies in Roche Blocking solution: 1:500, monoclonal Fab-A-VSH anti-MUC1-fs, AbD22655.2, Bio-Rad; 1:2000, monoclonal mouse anti-MUC1 (214D4), 05-652-KC, Millipore; 1:1000, monoclonal, Rabbit anti-GM130 (D6B1) XP, 12480, Cell signaling technology. The primary antibody cocktail was incubated at RT for 1.5 hr, followed by four PBS wash cycles. The secondary antibody cocktail contained four components that were all prepared at a 1:1000 dilution in the Roche blocking solution and consisted of Alexa Fluor® 488-conjugated AffiniPure F(ab′)2 Fragment Goat anti-Human IgG, 109-546-097, Jackson Immunoresearch; Alexa Fluor® 647-conjugated Goat anti-Rabbit IgG, A-21246, Thermo Fisher Scientific®; Alexa Fluor® 546 Goat anti-mouse IgG, A-21123, Thermo Fisher Scientific® and Hoechst 33342 stain (62249, Thermo Fisher Scientific®). The secondary antibody cocktail was incubated at RT for 45 min, followed by four PBS wash cycles. Finally, plates were sealed with a Plate Loc plate and stored in Liconic incubator at 10° C. until imaging. Following image analysis, three parameters were selected, i) MUC1-fs and ii) MUC1-wt total cytoplasm intensity (averaged per cell) and iii) cell number as was detected by Hoechst 33342 stained nuclei. The levels of MUC1-fs and MUC1-wt found following DMSO and JQ1 were defined as 0 and −100% activity, respectively. The values obtained for all compounds were normalized accordingly. Cell number was normalized to DMSO control.

MUC1-fs = assay: Immunofluorescence imaging of MUC1-fs in P cells (Example 2); format: cell-based; conditions: for EC50: 48 hr incubation, MUC1-fs; for Emax / ECMax (%): 48 hr; for Emax: DMSO = 0, JQ1 = −100% activity, in %; for ECMax (%): DMSO = 0, JQ1 (250 nM) = −100% activity
Method: as §1

| SMILES | EC50 (MUC1-wt; read-out: WT EC50) [µM] | WT EMax (MUC1-wt) | EC50 (MUC1-fs; read-out: EC50) [µM] | Emax (MUC1-fs) | EC50 (MUC1-wt; read-out: WT EC50 (Cytoplasm)) [µM] | WT ECMax (%) (MUC1-wt) | EC50 (MUC1-fs; read-out: EC50(Spot)) [µM] | ECMax (%) (MUC1-fs) |
| --- | --- | --- | --- | --- | --- | --- | --- | --- |
| Cl.NC1(c2ccccc2)C2CCC(C2)C12CCCC2 (racemic) [Compound 250, rac-3-phenylspiro[bicyclo[2.2.1]heptane-2,1′-cyclopentan]-3-amine hydrochloride] | > 16 | 8.2 | 7.83 | −86.3 |  |  |  |  |
| C[C@@H]1CCC[C@@]2(C1)[C@@H]1CC[C@@H](C1)[C@@H]2N.Cl [Compound 214-P2-B] |  |  |  |  | > 32 | −4.96 | 15.1 | −29.12 |
| C[C@]1(c2ccccc2)[C@H]2CC[C@H](C2)[C@H]1N (racemic) [Compound 218, rac-(1R,2R,3R,4S)-3-methyl-3-phenylbicyclo[2.2.1]heptan-2-amine] | > 16 | −15.4 | 13.5 | −54.7 |  |  |  |  |
| CCC1(CC)[C@H]2CC[C@H](C2)[C@]1(N)c1cccs1.Cl [Compound 247, (1R,2R,4S)-3,3-diethyl-2-(thiophen-2-yl)bicyclo[2.2.1]heptan-2-amine hydrochloride] | > 16 | 5.7 | > 16 | −45.8 |  |  |  |  |
| Cl.N[C@@H]1[C@@H]2CC[C@@H](C2)C12CCCC(C(=O)N1CCCCC1)C2 (stereo partly drawn) [Compound 227, ((1S,3R,4R)-3-aminospiro[bicyclo[2.2.1]heptane-2,1′-cyclohexan]-3′-yl)(piperidin-1-yl)methanone hydrochloride] | > 16 | 4.6 | > 16 | −39.9 |  |  |  |  |
| NC1C2CCC(C2)C12CC1CCC2C1 (racemic) [Compound 238-A, rac-2,2′-spirobi[bicyclo[2.2.1]heptan]-3-amine] | 1.8 | 38.7 | 0.006 | −108.1 |  |  |  |  |
| CC(C)[C@@]1(C)[C@H]2CC[C@H](C2)[C@@H]1N.Cl [Compound 246-B, (1R,2S,3S,4S)-3-isopropyl-3-methylbicyclo[2.2.1]heptan-2-amine hydrochloride] | > 16 | 6.2 | 6.99 | −69.3 |  |  |  |  |
| Cl.N[C@@H]1[C@@H]2CC[C@@H](C2)C12CCCCCC2 (racemic) [Compound 215] |  |  |  |  | 8.87 | 63 | 0.11 | −56.54 |
| CC(C)C1(C)C2CCC(C2)C1N.Cl (racemic) [Compound 245, rac-3-isopropyl-3-methylbicyclo[2.2.1]heptan-2-amine hydrochloride] | 4.5 | 106.2 | 0.011 | −90.2 |  |  |  |  |
| NC1C2CCC(C2)C12CC1CCC2C1 (racemic) [Compound 238-B, rac-2,2′-spirobi[bicyclo[2.2.1]heptan]-3-amine] | 5.6 | 40.7 | 0.029 | −106.4 |  |  |  |  |
| CC1CC[C@]2(C1)[C@H]1CC[C@H](C1)[C@H]2N.Cl (mixture of isomers) [Compound 210] |  |  |  |  | > 32 | −10.67 | 0.12 | −62.47 |
| Cl.NC1C2CCC(C2)C12CCOCC2 (racemic) [Compound 235, rac-tetrahydrospiro[bicyclo[2.2.1]heptane-2,4′-pyran]-3-amine hydrochloride] | > 16 | −6.6 | 1.77 | −88.6 |  |  |  |  |
| CC[C@]1(Cc2ccccc2)[C@@H]2CC[C@@H](C2)[C@@H]1N [Compound 222-P2, (1S,2S,3S,4R)-3-benzyl-3-ethylbicyclo[2.2.1]heptan-2-amine] |  |  | > 16 | 19.0 |  |  |  |  |
| C[C@H]1CC[C@]2(C1)[C@@H]1CC[C@@H](C1)[C@@H]2N.Cl [Compound 210-P2-B] |  |  |  |  | > 16 | 30.21 | 0.1 | −66.02 |
| C[C@H]1CCC[C@@]2(C1)[C@@H]1CC[C@@H](C1)[C@@H]2N.Cl [Compound 214-P2-A] |  |  |  |  | > 32 | −7.57 | 24 | −24.69 |
| C[C@@]1(Cc2ccccc2)[C@H]2CC[C@H](C2)[C@H]1N.Cl (racemic) [Compound 207] |  |  |  |  | > 32 | 5.9 | > 32 | −25.6 |
| CC1(C)[C@@H]2CC[C@@H](C2)[C@@H]1N (single isomer, unassigned) [Compound 201-P2, hydrochloride] |  |  |  |  | 11.9 | 68.51 | 0.47 | −85.5 |
| Cl.N[C@@H]1[C@@H]2CC[C@@H](C2)C12CC1CCC2CC1 (stereo partly drawn) [Compound 239, (1S,3R,4R)-spiro[bicyclo[2.2.1]heptane-2,2′-bicyclo[2.2.2]octan]-3-amine hydrochloride] | 13.5 | 62.7 | 2.29 | −83.1 |  |  |  |  |
| C[C@H]1CC[C@]2(C1)[C@H]1CC[C@H](C1)[C@H]2N.Cl [Compound 211-P1-B] |  |  |  |  | > 32 | 9.31 | 5 | −61.55 |
| NC1C2CCC(C2)C12CCC(O)C2 (racemic) [Compound 249A, rac-3-aminospiro[bicyclo[2.2.1]heptane-2,1′-cyclopentan]-3′-ol] | > 16 | −7.2 | 2.2 | −98.1 |  |  |  |  |
| CN(C)CC1CCCC2(C1)C1CCC(C1)C2N.Cl (racemic) [Compound 223, rac-3′-((dimethylamino)methyl)spiro[bicyclo[2.2.1]heptane-2,1′-cyclohexan]-3-amine hydrochloride] | > 16 | 25.7 | > 16 | −12 |  |  |  |  |
| C[C@@H]1CCC[C@]2(C1)[C@H]1CC[C@H](C1)[C@H]2N.Cl [Compound 214-P1-A] |  |  |  |  | > 32 | 3.96 | 10.5 | −26.27 |
| Cl.N[C@@H]1[C@@H]2CC[C@@H](C2)C12CCCC(C(=O)N1CCOCC1)C2 (stereo partly drawn) [Compound 226, ((1S,3R,4R)-3-aminospiro[bicyclo[2.2.1]heptane-2,1′-cyclohexan]-3′-yl)(morpholino)methanone hydrochloride] | > 16 | 9.0 | > 16 | 7.8 |  |  |  |  |
| CCCCC1(C)C2CCC(C2)C1N (stereo not shown) [Compound 206-P2] |  |  |  |  | > 32 | −3.86 | > 32 | −10.5 |
| CC[C@@]1(Cc2ccccc2)[C@H]2CC[C@H](C2)[C@H]1N [Compound 222-P1, (1R,2R,3R,4S)-3-benzyl-3-ethylbicyclo[2.2.1]heptan-2-amine] |  |  | > 16 | −17.9 |  |  |  |  |
| Cl.N[C@@H]1[C@@H]2CC[C@@H](C2)[C@]12CCC[C@@H](CO)C2 [Compound 220-P2, ((1S,2R,3R,3′R,4R)-3-aminospiro[bicyclo[2.2.1]heptane-2,1′-cyclohexan]-3′-yl)methanol hydrochloride] |  |  | > 16 | 9.4 |  |  |  |  |
| Cl.N[C@@H]1[C@@H]2CC[C@@H](C2)[C@]12CCC[C@H](CO)C2 [Compound 220-P1, ((1S,2R,3R,3′S,4R)-3-aminospiro[bicyclo[2.2.1]heptane-2,1′-cyclohexan]-3′-yl)methanol hydrochloride] |  |  | > 16 | 6.0 |  |  |  |  |
